Tests used:
HCV GT1a(H77) replicon = assay: HCV replicon luciferase reporter assay, genotype 1a; format: cell-based, HCV genotype 1a; conditions: Hepatitis C virus, 72 h, HUH-7 cells, Renilla luciferase, 3 days incubation, read-out: LE_1a (EC50, range)
Source text: A stable HCV GT1a(H77) replicon luciferase reporter cell line (Yanagi M, Purcell RH, Emerson S U, et al. Transcripts from a single full-length cDNA clone of hepatitis C virus are infectious when directly transfected into the liver of a chimpanzee. Proc Natl Acad Sci USA 1997; 94(16):8738-8743) was generated as described previously for the genotype 1b(Con1) replicon luciferase cell line. The replicon construct was modified by introducing mutations into the genes encoding the NS3 helicase domain (proline replaced by leucine at position 1496) and NS5A (serine to isoleucine at position 2204) to improve replication in cell culture.
(§1) HCV replicon luciferase assays were developed to monitor the inhibitory effects of compounds described in the disclosure on HCV genotypes 1a and 1b viral replication. HUH-7 cells, constitutively expressing the HCV replicon, were grown in Dulbecco's Modified Eagle Media (DMEM) (Gibco-BRL) containing 10% Fetal calf serum (FCS) (Sigma) and 1 mg/mL G418 (Gibco-BRL). Compounds were serially diluted 3 folds in DMSO for a twenty-point titration and subsequently transferred to sterile 384-well tissue-culture treated plates (Corning cat #3571). The plates were then seeded with 50 μL of cells at a density of 3.0×10^3 cells/well in DMEM containing 4% FCS (final DMSO concentration at 0.5%). After 3 days incubation at 37° C., cells were analyzed for Renilla Luciferase activity using the EnduRen as substrate (Promega cat #E6485). The EnduRen substrate was diluted in DMEM and then added to the plates to a final concentration of 7.5 μM. The plates were incubated for 2 hrs at 37° C. and then read immediately for 30 seconds with Viewlux Imager (PerkinElmer) using a luminescence program. To assess cytotoxicity of compounds, CC50 values were generated by multiplexing the EnduRen-containing plates with Cell Titer-Blue (Promega, cat #G8082). Cell-Titer Blue (3 μL) was added to each well and incubated for 8 hrs at 37° C. The fluorescence signal from each well was read, with an excitation wavelength at 525/10 nm and an emission wavelength of 598/10 nm, using the Viewlux Imager.
(§2) The EC50 values for compounds were calculated by using a four-parameter logistic equation: y=A+[…])/(1+((C/x)^D))), where A and B denotes minimal and maximal % inhibition, respectively, C is the EC50, D is the hill slope and x represents compound concentration.

HCV GT1b(Con1) replicon = assay: HCV replicon luciferase reporter assay, genotype 1b; format: cell-based, HCV genotype 1b; conditions: Hepatitis C virus, 72 h, HUH-7 cells, Renilla luciferase, 3 days incubation, read-out: LE_1b (EC50, range)
Source text: An HCV GT1b(Con1) replicon cell system was established as described by Lohmann V, Korner F, Koch J, Herian U, Theilmann L, Bartenschlager R., Science 285(5424):110-3 (1999) and modified to introduce a luciferase reporter (Krieger N, Lohmann V, and Bartenschlager R, J. Virol. 75(10):4614-4624 (2001)). cDNA encoding a humanized form of the Renilla luciferase gene, and a linker sequence fused directly to the 3′-end of the luciferase gene were introduced into the replicon construct using an Asc1 restriction site located in core, directly upstream of the neomycin marker gene. The adaptive mutation at position 1179 (serine to isoleucine) was also introduced (Blight K J, Kolykhalov, A A, Rice, C M, Science 290(5498):1972-1974). A stable cell line constitutively expressing this HCV replicon construct was generated by first linearizing plasmid DNAs with ScaI. RNA transcripts were synthesized in vitro using the T7 MegaScript transcription kit (Ambion, Austin, Tex.) according to manufacturer's directions. In vitro transcripts of the cDNA were transfected into the human hepatoma cell line, HUH-7. […] Resulting cell lines were characterized for positive and negative strand RNA production and protein production over time.
as §1, §2

SMILES | EC50 (HCV GT1a(H77) replicon) [nM] | EC50 (HCV GT1b(Con1) replicon) [nM]
CC[C@@H]1O[C@H](C)CC/C=C\[C@@H]2C[C@@]2(C(=O)NS(=O)(=O)C2(C)CC2)NC(=O)[C@@H]2C[C@@H](Oc3cc(-c4ccc(OC(C)C)cc4)nc(-c4nccs4)c3)CN2C(=O)[C@H]1NC(=O)OC1(C(F)(F)F)CCCOC1 (stereo partly drawn) [Compound 1035, 3-(trifluoromethyl)tetrahydro-2H-pyran-3-yl ((2R,6S,7S,9R,13aS,14aR,16aS,Z)-7-ethyl-2-((2-(4-isopropoxyphenyl)-6-(thiazol-2-yl)pyridin-4-yl)oxy)-9-methyl-14a-(((1-methylcyclopropyl)sulfonyl)carbamoyl)-5,16-dioxo-2,3,5,6,7,9,10,11,13a,14,14a,15,16,16a-tetradecahydro-1H-cyclopropa[i]pyrrolo[1,2-e][1,5,8]oxadiazacyclopentadecin-6-yl)carbamate] | 0.51 to 1 | 0.51 to 1
CC[C@@H]1O[C@H](C)CC/C=C\[C@@H]2C[C@@]2(C(=O)NS(=O)(=O)C2(C)CC2)NC(=O)[C@@H]2C[C@@H](Oc3cc(-c4ccc(OC(C)C)cc4)nc(-c4cscn4)c3)CN2C(=O)[C@H]1NC(=O)OC1(C(F)(F)F)CCCOC1 (stereo partly drawn) [Compound 1036, 3-(trifluoromethyl)tetrahydro-2H-pyran-3-yl ((2R,6S,7S,9R,13aS,14aR,16aS,Z)-7-ethyl-2-((2-(4-isopropoxyphenyl)-6-(thiazol-4-yl)pyridin-4-yl)oxy)-9-methyl-14a-(((1-methylcyclopropyl)sulfonyl)carbamoyl)-5,16-dioxo-2,3,5,6,7,9,10,11,13a,14,14a,15,16,16a-tetradecahydro-1H-cyclopropa[i]pyrrolo[1,2-e][1,5,8]oxadiazacyclopentadecin-6-yl)carbamate] | 0.51 to 1 | 0.1 to 0.5
C[C@@H]1CC/C=C\[C@@H]2C[C@@]2(C(=O)NS(=O)(=O)C2(C)CC2)NC(=O)[C@@H]2C[C@@H](Oc3cc(-c4nccs4)ccn3)CN2C(=O)[C@@H](NC(=O)OC(C)(C)C(F)(F)F)[C@H](C)C1 [Compound 1031, 1,1,1-trifluoro-2-methylpropan-2-yl ((2R,6S,7R,9R,13aS,14aR,16aS,Z)-7,9-dimethyl-14a-(((1-methylcyclopropyl)sulfonyl)carbamoyl)-5,16-dioxo-2-((4-(thiazol-2-yl)pyridin-2-yl)oxy)-1,2,3,5,6,7,8,9,10,11,13a,14,14a,15,16,16a-hexadecahydrocyclopropa[e]pyrrolo[1,2-a][1,4]diazacyclopentadecin-6-yl)carbamate] | 1.01 to 5 | 0.51 to 1
CC[C@@H]1OCCC/C=C\[C@@H]2C[C@@]2(C(=O)NS(=O)(=O)C2(C)CC2)NC(=O)[C@@H]2C[C@@H](Oc3cc(-c4ccc(OC(C)C)cc4)nc(-c4cncs4)c3)CN2C(=O)[C@H]1NC(=O)OC1(C(F)(F)F)CCCOC1 (stereo partly drawn) [Compound 1038, 3-(trifluoromethyl)tetrahydro-2H-pyran-3-yl ((2R,6S,7S,13aS,14aR,16aS,Z)-7-ethyl-2-((2-(4-isopropoxyphenyl)-6-(thiazol-5-yl)pyridin-4-yl)oxy)-14a-(((1-methylcyclopropyl)sulfonyl)carbamoyl)-5,16-dioxo-2,3,5,6,7,9,10,11,13a,14,14a,15,16,16a-tetradecahydro-1H-cyclopropa[i]pyrrolo[1,2-e][1,5,8]oxadiazacyclopentadecin-6-yl)carbamate] | 1.01 to 5 | 0.51 to 1
CC(C)Oc1ccc(-c2cc(O[C@@H]3C[C@H]4C(=O)N[C@]5(C(=O)NS(=O)(=O)C6(C)CC6)C[C@H]5/C=C\CC[C@@H](C)C[C@@H](C)[C@H](NC(=O)OC5(C(F)(F)F)CCCOC5)C(=O)N4C3)cc(-c3nccs3)n2)cc1 (stereo partly drawn) [Compound 1041, 3-(trifluoromethyl)tetrahydro-2H-pyran-3-yl ((2R,6S,7R,9R,13aS,14aR,16aS,Z)-2-((2-(4-isopropoxyphenyl)-6-(thiazol-2-yl)pyridin-4-yl)oxy)-7,9-dimethyl-14a-(((1-methylcyclopropyl)sulfonyl)carbamoyl)-5,16-dioxo-1,2,3,5,6,7,8,9,10,11,13a,14,14a,15,16,16a-hexadecahydrocyclopropa[e]pyrrolo[1,2-a][1,4]diazacyclopentadecin-6-yl)carbamate] | 0.51 to 1 | 0.51 to 1
CC[C@@H]1C[C@H](C)CC/C=C\[C@@H]2C[C@@]2(C(=O)NS(=O)(=O)C2(C)CC2)NC(=O)[C@@H]2C[C@@H](Oc3ccnc(-c4nc(C)cs4)c3)CN2C(=O)[C@H]1NC(=O)OC(C)(C)C(F)(F)F [Compound 1055, 1,1,1-trifluoro-2-methylpropan-2-yl ((2R,6S,7R,9R,13aS,14aR,16aS,Z)-7-ethyl-9-methyl-14a-(((1-methylcyclopropyl)sulfonyl)carbamoyl)-2-((2-(4-methylthiazol-2-yl)pyridin-4-yl)oxy)-5,16-dioxo-1,2,3,5,6,7,8,9,10,11,13a,14,14a,15,16,16a-hexadecahydrocyclopropa[e]pyrrolo[1,2-a][1,4]diazacyclopentadecin-6-yl)carbamate] | 1.01 to 5 | 1.01 to 5
CC(C)Oc1ccc(-c2cc(O[C@@H]3C[C@H]4C(=O)N[C@]5(C(=O)NS(=O)(=O)C6(C)CC6)C[C@H]5/C=C\CC[C@H](C)C[C@@H](C)[C@H](NC(=O)OC(C)(C)C(F)(F)F)C(=O)N4C3)cc(-c3cncs3)n2)cc1 [Compound 1004, 1,1,1-trifluoro-2-methylpropan-2-yl ((2R,6S,7R,9S,13aS,14aR,16aS,Z)-2-((2-(4-isopropoxyphenyl)-6-(thiazol-5-yl)pyridin-4-yl)oxy)-7,9-dimethyl-14a-(((1-methylcyclopropyl)sulfonyl)carbamoyl)-5,16-dioxo-1,2,3,5,6,7,8,9,10,11,13a,14,14a,15,16,16a-hexadecahydrocyclopropa[e]pyrrolo[1,2-a][1,4]diazacyclopentadecin-6-yl)carbamate] | 5.01 to 35 | 1.01 to 5
C[C@@H]1CC/C=C\[C@@H]2C[C@@]2(C(=O)NS(=O)(=O)C2(C)CC2)NC(=O)[C@@H]2C[C@@H](Oc3cc(-c4cccnc4)nc(-c4nccs4)c3)CN2C(=O)[C@@H](NC(=O)OC(C)(C)C(F)(F)F)[C@H](C)C1 [Compound 1050, 1,1,1-trifluoro-2-methylpropan-2-yl ((2R,6S,7R,9R,13aS,14aR,16aS,Z)-7,9-dimethyl-14a-(((1-methylcyclopropyl)sulfonyl)carbamoyl)-5,16-dioxo-2-((6-(thiazol-2-yl)-[2,3′-bipyridin]-4-yl)oxy)-1,2,3,5,6,7,8,9,10,11,13a,14,14a,15,16,16a-hexadecahydrocyclopropa[e]pyrrolo[1,2-a][1,4]diazacyclopentadecin-6-yl)carbamate] | 1.01 to 5 | 0.1 to 0.5
CC(C)Oc1ccc(-c2cc(O[C@@H]3C[C@H]4C(=O)N[C@]5(C(=O)NS(=O)(=O)C6(C)CC6)C[C@H]5/C=C\CC[C@@H](C)C[C@@H](C)[C@H](NC(=O)OC5(C(F)(F)F)CCCOC5)C(=O)N4C3)cc(-c3ncccn3)n2)cc1 (stereo partly drawn) [Compound 1048, 3-(trifluoromethyl)tetrahydro-2H-pyran-3-yl ((2R,6S,7R,9R,13aS,14aR,16aS,Z)-2-((2-(4-isopropoxyphenyl)-6-(pyrimidin-2-yl)pyridin-4-yl)oxy)-7,9-dimethyl-14a-(((1-methylcyclopropyl)sulfonyl)carbamoyl)-5,16-dioxo-1,2,3,5,6,7,8,9,10,11,13a,14,14a,15,16,16a-hexadecahydrocyclopropa[e]pyrrolo[1,2-a][1,4]diazacyclopentadecin-6-yl)carbamate] | 1.01 to 5 | 1.01 to 5

From US9334279B2, “Hepatitis C virus inhibitors” (BRISTOL-MYERS SQUIBB COMPANY, priority 2012, dated 2016)
